Assay results taken from patent US20250161180A1, “NOVEL USE OF 4-AMIDINO BENZYLAMINES” (DSM IP Assets B.V., priority 2022, published 2025).

Tested on: collagen type 1
Assay: in vitro dermal fibroblast collagen assay (collagen 1 immunolabeling, flow cytometry)
Assay type: cell-based, human
Conditions: for Collagen 1 expression relative to untreated (%): normal human dermal fibroblasts, 72 hours, mean (n = 4), untreated = 100%
Protocol: Amidinobenzyl Benzylsulfonyl D-Seryl Homophenylalaninamide Acetate (ABSHA) was evaluated for its effect on collagen type 1. This was done using an in vitro dermal fibroblast collagen assay.
Normal human dermal fibroblasts were seeded in cell culture medium (Dulbecco's Modified Eagle Medium supplemented with 10% serum and 1% antibiotics) and allowed to adhere in a humidified cell incubator maintaining 37° C. and 5% CO2. Afterwards, the cells were starved with culture medium without serum for 16-24 hours to synchronize the cells their cell cycle. The starvation medium was removed and cell culture medium+SYN®-UP at various concentrations was added to the cells. The cells were treated for 72 hours. The cells were then fixated and immunolabeled with antibodies specific for collagen 1. These labeled cells were analyzed using flow cytometry and compared to the untreated ones (medium without SYN®-UP).
Table 1. […] Data are normalized to the untreated control (100%) and expressed as the mean±SD (n=4).

`N=C(N)c1ccc(CNC(=O)C(CCc2ccccc2)NC(=O)C(CO)NS(=O)(=O)Cc2ccccc2)cc1` [ABSHA, Amidinobenzyl Benzylsulfonyl D-Seryl Homophenylalaninamide Acetate] was tested, and the “effect on collagen type 1 expression (in words)” value (in vitro dermal fibroblast collagen assay) was “increases collagen expression”, the “Collagen 1 expression relative to untreated (%)” value (1 μM) was 144% and the “Collagen 1 expression relative to untreated (%)” value (5 μM) was 160%. For the same compound, the “Collagen 1 expression relative to untreated (%)” value (25 μM) was 185% and the “Collagen 1 expression relative to untreated (%)” value (concentration printed only as "μM" (figure missing)) was 188%.
